Data on 15 compounds can be found in patent publication US10961196B2, “Compounds for use as an anti-bacterial or anti-fungal agent and as a zinc sensor” (UNIVERSITÄT KONSTANZ, priority 2016, dated 2021).

Values joined by “and” are separate entries in the source; they are usually repeats but may differ in a detail not shown here. Equal entries are not always repeated. Where two headings read alike, the source gives them in different places.

Data set [1] deals with S. aureus Mu50 (MRSA). As to the kind of experiment: Minimum inhibitory concentration (MIC), 96-well plates, serial dilutions in LB medium. Particulars: Staphylococcus aureus, read-out: Minimum inhibitory concentration (MIC). Type of data set: cell-based. The text has this:
(§1) Example 12: Determination of the Minimum Inhibitory Concentration (MIC) with Non-Pathogenic E. coli and B. subtilis and/or Pathogenic Strains of S. aureus Including Three MRSA Strains (USA 300, Mu50 and DSM18827) as Well as the Pathogenic Fungus Candida albicans
(§2) Minimum inhibitory concentrations (MIC) for compounds 1 to 11 with non-pathogenic E. coli and B. subtilis and/or pathogenic strains of S. aureus including three MRSA strains (USA 300, Mu50 and DSM18827) as well as the pathogenic fungus Candida albicans were determined in 96-well plates with serial dilutions in LB medium.

The next data set has as its system S. aureus NCTC 8325. The data set is described as above. Type of data set: cell-based. Particulars: Staphylococcus aureus.
From the text: as §1, §2

Data set [2] has as its system S. aureus DSM18827 (MRSA). The description is as above. Type of data set: cell-based. The conditions noted are these: Staphylococcus aureus, DSM 11827 / DSM 18827 / MRSA, read-out: Minimum inhibitory concentration (MIC).
From the text: as §1, §2

Another data set has as its system S. aureus USA 300 (MRSA). Described as above. Type of data set: cell-based. The conditions noted are these: Staphylococcus aureus, read-out: Minimum inhibitory concentration (MIC).
From the text: as §1, §2
Example 21: Determination of the Minimum Inhibitory Concentration (MIC) for the Compounds Represented by the Formulas (14) and (16) with the Pathogenic USA 300 (MRSA) Strain of S. aureus
Minimum inhibitory concentrations (MIC) for the compounds represented by the Formulas (14) and (16) with the pathogenic MRSA strains of S. aureus USA 300 were determined in 96-well plates with serial dilutions in LB medium.

The subject of another data set is E. coli K12. The description is as above. Type of data set: cell-based. The conditions noted are these: Escherichia coli.
From the text: as §1, §2

A further data set concerns B. subtilis. The data set is described as above. Particulars: Bacillus subtilis, read-out: Minimum inhibitory concentration (MIC). Type of data set: cell-based.
From the text: as §1, §2

Data set [3] relates to S. aureus Mu50 (MRSA). The conditions noted are these: cited from earlier work; for MIC of known antibiotics: comparison values.
In a further data set the target is elastase (LasB) (Pseudomonas aeruginosa, UniProt P14756). The experiment in a line: In vitro elastase assay with fluorogenic substrate Abz-peptide-Nba. Type of data set: biochemical, P. aeruginosa. As for the experimental part:
Example 16: In Vitro Inhibition of Elastase (LasB) with Compounds 6, 7, and 12
An in-vitro elastase assay was performed according to Cathcart et al. (G. R. Cathcart, B. F. Gilmore, B. Greer, P. Harriott, B. Walker, Bioorganic & medicinal chemistry letters 2009, 19, 6230-6232). For a typical in vitro elastase assay 82 μL buffer (0.05 M TRIS HCl, 2.5 mM CaCl2, pH=7.2) and 5 μL of compound 6 solved in DMSO were added in a 96 well plate. 10 μL of 3 μg/mL elastase (solved in the same Tris/CaCl2 buffer) were added and mixed with the compound. After incubation for 10 min at room temperature, 3 μL fluorogenic substrate Abz-peptide-Nba (2-aminobenzoyl-Ala-Gly-Leu-Ala-4-nitrobenzylamide) in DMF were added and the fluorescence measured for 90 min in one minute steps (excitation at 330 nm, emission at 460 nm). The slope of the resulting graph was used to calculate the enzymatic activity.

In data set [4] the test system is developing neurons (LUHMES d2-3). The experiment in a line: Toxicological testing with developing neurons in the LUHMES d2-3 assay. Type of data set: cell-based. The conditions noted are these: 0-100 μM tested. The protocol: Example 14: Toxicological Testing with Developing Neurons in the LUHMES d2-3 Assay
Compounds 3, 5, and 10 were toxicologically tested with developing neurons in the LUHMES d2-3 assay at concentrations varying from 0 to 100 μM (cf. FIGS. 4 to 6). […] In the case of compound 5 (cf. FIG. 5), general cytotoxicity (orange line) and inhibition of neurite outgrowth each started above 40 μM (green line). For compound 10 (cf. FIG. 6), general cytotoxicity (orange line) started at 80 μM and inhibition of neurite outgrowth started at 40 μM (green line).

In a further data set the test system is Moraxella catarrhalis. The experiment in a line: Growth curves in comparison to an untreated and a DMSO treated control. Type of data set: cell-based. The protocol: (§3) Example 22: Determination of the Inhibitory Effect of 1-S-PQS (5) Against Moraxella catarrhalis and Neisseria meningitidis by Measuring Growth Curves in Comparison to an Untreated and a DMSO Treated Control
(§4) The inhibitory effect of 1-S-PQS (5) against Moraxella catarrhalis and Neisseria meningitidis was determined by measuring growth curves in comparison to an untreated and a DMSO treated control (cf. FIGS. 11 to 14). […] M. catarrhalis is an important human pathogen responsible for otitis media in children and chronic obstructive pulmonary disease (COPD) in adults.
Example 23: Determination of the Inhibitory Effect of the Compound Represented by the Formula (14) Against Moraxella catarrhalis by Measuring Growth Curves in Comparison to an Untreated and a DMSO Treated Control
The inhibitory effect of the compound represented by the Formula (14) against Moraxella catarrhalis was determined by measuring growth curves in comparison to an untreated and a DMSO treated control (cf. FIGS. 15 and 16).

Another data set has as its system Neisseria meningitidis. Described as above. Type of data set: cell-based. As for the experimental part: as §3, §4
The next data set relates to Neisseria gonorrhoeae. The data set is described as above. Type of data set: cell-based. As for the experimental part: Example 24: Determination of the Inhibitory Effect of 1-S-PQS (5) and the Compound Represented by the Formula (14) Against Neisseria gonorrhoeae by Measuring Growth Curves in Comparison to an Untreated and a DMSO Treated Control
The inhibitory effect of 1-S-PQS (5) and the compound represented by the Formula (14) against Neisseria gonorrhoeae was determined by measuring growth curves in comparison to an untreated and a DMSO treated control (cf. FIGS. 17 to 19). […] The compound represented by the Formula (14) was effective against N. gonorrhoeae around 25-50 μM (cf. FIG. 19).

Setting [5] is: S. aureus Mu50 (MRSA), LB medium.
The mark [6] stands for this setting: NCTC8325, S. aureus NCTC 8325, LB medium, read-out: Minimum inhibitory concentration (MIC).
Where [7] appears, read: S. aureus DSM18827 (also printed DSM11827), MRSA, LB medium.
[8] abbreviates: S. aureus USA 300 (MRSA), LB medium.
[9] abbreviates: NCTC8325, read-out: Minimum inhibitory concentration (MIC).
[10] abbreviates: 5 μM was the lowest concentration tested.

Chain of elastase (LasB) (P14756 198-498): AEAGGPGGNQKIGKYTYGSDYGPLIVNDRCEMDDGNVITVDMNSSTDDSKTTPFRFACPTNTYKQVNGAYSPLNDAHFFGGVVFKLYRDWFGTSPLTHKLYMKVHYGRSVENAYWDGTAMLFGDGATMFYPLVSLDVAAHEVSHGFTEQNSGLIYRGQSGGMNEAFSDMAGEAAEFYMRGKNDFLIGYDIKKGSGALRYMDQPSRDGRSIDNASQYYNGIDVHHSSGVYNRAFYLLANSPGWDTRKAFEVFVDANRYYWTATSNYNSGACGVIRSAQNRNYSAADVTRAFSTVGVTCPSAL

As to `CCCCCCCc1sc2ccc(F)cc2c(=O)c1O` [Compound 11, 6-fluoro-2-heptyl-3-hydroxy-4H-thiochromen-4-one], the MIC is 40 µM and 11.8 µg/mL in the data set with S. aureus Mu50 (MRSA) [1] (setting [5]); 35 µM and 10.3 µg/mL in the data set on S. aureus NCTC 8325 (setting [6]); 40 µM and 11.8 µg/mL in data set [2] (setting [7]); 35 µM and 10.3 µg/mL with S. aureus USA 300 (MRSA) (setting [8]).
On to `CCCCCCCc1cc(=O)c2ccccc2[nH]1` [Compound 1, 2-heptyl-4-quinolone, reference compound], for which the MIC with S. aureus NCTC 8325 (setting [9]) was > 1000 µM and > 243 µg/mL; in the data set on E. coli K12 it was > 1000 µM and > 243 µg/mL; in the data set on B. subtilis, > 1000 µM and > 243 µg/mL.
As to `CCCCCCCCCCc1sc2ccccc2c(=O)c1O` [Formula (16)], the MIC in the data set on S. aureus USA 300 (MRSA) (setting [8]) was > 100 µM and > 32 µg/mL.
Turning to `CC1(C)S[C@@H]2[C@H](NC(=O)[C@H](N)c3ccccc3)C(=O)N2[C@H]1C(=O)O` [ampicillin], in the data set with S. aureus Mu50 (MRSA) [3], the “MIC of known antibiotics” value is 37 µg/mL.
On to `Cc1sc2ccccc2c(=O)c1O` [Compound 9, 3-hydroxy-2-methyl-thiochromen-4-one], for which the MIC with S. aureus Mu50 (MRSA) [1] (MRSA) was > 1000 µM and > 192 µg/mL; with S. aureus NCTC 8325 (setting [9]), > 1000 µM and > 192 µg/mL; in data set [2], > 1000 µM and > 192 µg/mL; in the data set on S. aureus USA 300 (MRSA) it was > 1000 µM and > 192 µg/mL.
For the compound `CCCCCCCc1sc2ccccc2c(=S)c1O` [Compound 12, 2-heptyl-3-hydroxy-4H-thiochromene-4-thione], 2000 nM corresponded to half-maximal inhibition against elastase (LasB) (IC50).
For the compound `CCCCCCCc1sc2ccccc2c(=O)c1O` [Compound 5, 2-heptyl-3-hydroxy-4H-thiochromen-4-one], the “Concentration at which general cytotoxicity starts” value in data set [4] was “above 40 μM”. The “Concentration at which inhibition of neurite outgrowth starts” value in data set [4] is reported as “above 40 μM”. Further, the MIC in the data set on S. aureus Mu50 (MRSA) [1] (setting [5]) is 25 µM and 6.91 µg/mL; with S. aureus NCTC 8325 (setting [6]), 30 µM and 8.29 µg/mL; in [2] (setting [7]) it was 35 µM and 9.67 µg/mL; in the data set with B. subtilis (B. subtilis, LB medium), 25 µM and 6.91 µg/mL; in the data set with S. aureus USA 300 (MRSA) (setting [8]), 30 µM and 8.29 µg/mL. In addition, the “Growth relative to DMSO control” value was 0.1 in the data set on Moraxella catarrhalis (5 μM); 0.0 in the data set on Moraxella catarrhalis (10 μM); 0.0 in the data set on Moraxella catarrhalis (25 μM); 0.0 in the data set with Moraxella catarrhalis (50 μM); 0.4 in the data set with Neisseria meningitidis (5 μM); 0.0 with Neisseria meningitidis (10 μM). The “Growth relative to DMSO control” value in the data set on Neisseria meningitidis (25 μM) and in the data set on Neisseria meningitidis (50 μM) was 0.0 throughout. Moreover, the “Concentration at which growth was completely inhibited” value was at most 5 µM in the data set on Moraxella catarrhalis (setting [10]), at most 1.4 µg/mL in the data set with Moraxella catarrhalis (lowest concentration tested (5 μM) expressed in μg/mL), 10 µM in the data set with Neisseria meningitidis and 25 µM in the data set with Neisseria gonorrhoeae.
Take `CCCCc1sc2ccccc2c(=O)c1O` [Compound 10, 3-hydroxy-2-butyl-thiochromen-4-one]: the “Concentration at which general cytotoxicity starts” value in [4] was 80 µM. In addition, the “Concentration at which inhibition of neurite outgrowth starts” value in [4] came to 40 µM. Further, the MIC in the data set on S. aureus Mu50 (MRSA) [1] (setting [5]) was 50 µM and 11.7 µg/mL; in the data set on S. aureus NCTC 8325 (setting [6]) it was 50 µM and 11.7 µg/mL; in [2] (setting [7]), 50 µM and 11.7 µg/mL; in the data set with S. aureus USA 300 (MRSA) (setting [8]) it was 50 µM and 11.7 µg/mL.
Consider `CCCCCCCc1[nH]c2ccccc2c(=O)c1O` [Compound 4, 2-heptyl-3-hydroxy-4-quinolone, reference compound], for which the MIC was > 1000 µM and > 259 µg/mL in the data set with S. aureus NCTC 8325 (setting [9]); > 1000 µM and > 259 µg/mL in the data set with E. coli K12; > 1000 µM and > 259 µg/mL in the data set with B. subtilis.
For the compound `CCCCCCCc1[nH]c2ccccc2/c(=N\O)c1O` [Compound 8, 2-heptyl-3-hydroxyquinolin-4(1H)-one oxime], the MIC was 100 µM and 27.4 µg/mL in the data set with S. aureus Mu50 (MRSA) [1] (MRSA); 200 µM and 54.9 µg/mL in the data set on S. aureus NCTC 8325 (setting [9]); 150 µM and 41.1 µg/mL in data set [2]; 100 µM and 27.4 µg/mL in the data set with S. aureus USA 300 (MRSA).
Regarding `O=c1c(O)c(CCc2ccccc2)sc2ccccc12` [Formula (14)], in the data set with Moraxella catarrhalis (setting [10]), the “Concentration at which growth was completely inhibited” value is at most 5 µM. Further, in the data set with Neisseria gonorrhoeae, the “Concentration at which the compound was effective” value fell in the range of 25 to 50 µM. For the same compound, the MIC in the data set on S. aureus USA 300 (MRSA) (setting [8]) was 40 µM and 11.3 µg/mL.
On to `CCCCCCCc1oc2ccccc2c(=S)c1O` [Compound 7, 2-heptyl-3-hydroxy-4H-chromene-4-thione], for which the MIC with S. aureus Mu50 (MRSA) [1] (setting [5]) was 50 µM and 13.8 µg/mL; in the data set on S. aureus NCTC 8325 (setting [6]), 60 µM and 16.6 µg/mL; in [2] (setting [7]), 72.5 µM and 20 µg/mL; in the data set with S. aureus USA 300 (MRSA) (setting [8]), 60 µM and 16.6 µg/mL. Besides, the IC50 at elastase (LasB) is 2000 nM.
Take `CC[C@H]1OC(=O)[C@H](C)[C@@H](O[C@H]2C[C@@](C)(OC)[C@@H](O)[C@H](C)O2)[C@H](C)[C@@H](O[C@@H]2O[C@H](C)C[C@H](N(C)C)[C@H]2O)[C@](C)(O)C[C@@H](C)C(=O)[C@H](C)[C@@H](O)[C@]1(C)O` [erythromycin]: the “Concentration to inhibit growth (commercial antibiotics)” value with S. aureus Mu50 (MRSA) [3] (background section) was over 1 mM.
`CCCCCCCc1cc(=O)c2ccccc2[te]1` [Compound 2, 2-heptyl-4H-tellurochromen-4-one]: the MIC in the data set on B. subtilis is 100 µM to 250 µM and 36 µg/mL to 89 µg/mL.
Take `O=C(O)c1cn(C2CC2)c2cc(N3CCNCC3)c(F)cc2c1=O` [ciprofloxacin]: the “MIC of known antibiotics” value with S. aureus Mu50 (MRSA) [3] was 66 µg/mL.

As a reminder, the IC50 is the concentration that gives 50% inhibition. Low readings indicate greater potency in that assay, high ones weaker potency in that assay.
